# Laboratory results: ChEMBL document CHEMBL5724914, “Linking interpersonal differences in gut microbiota composition and drug biotransformation activity” (2024)
# Conditions: human gut metagenome, 24 h, 2 µM
# Further: call rule not given here.
row,Bacterial Biotransformation,Compound
1,Compound NOT metabolized,CN1CCC(=C2c3ccccc3CC(=O)c3sccc32)CC1.O=C(O)/C=C/C(=O)O [KETOTIFEN FUMARATE]
2,Compound NOT metabolized,CC[C@H](C)C(=O)O[C@H]1CCC=C2C=C[C@H](C)[C@H](CC[C@@H]3C[C@@H](O)CC(=O)O3)[C@H]21 [MEVASTATIN]

# Assay: (§1) The drug is tested on Z-025 corresponding to rabbit gut metagenome with ENA study accession number: PRJEB37062 and ENA sample accession number: ERS12561824 for biotransformation under anaerobic condition. The drug concentrations were measured over 9 timepoints collected between 0 and 24 hours of incubation by liquid-chromatography-coupled mass spectrometry (LC–MS)
# Conditions: 2 µM
row,Bacterial Biotransformation,Compound
1,Compound NOT metabolized,CN1CCC(=C2c3ccccc3CC(=O)c3sccc32)CC1.O=C(O)/C=C/C(=O)O [KETOTIFEN FUMARATE]
2,Compound metabolized,CC[C@H](C)C(=O)O[C@H]1CCC=C2C=C[C@H](C)[C@H](CC[C@@H]3C[C@@H](O)CC(=O)O3)[C@H]21 [MEVASTATIN]

# Assay: as §1, with “Z-030” for “Z-025”, “mouse” for “rabbit”, “ERS12561829” for “ERS12561824”
# Conditions: 2 µM
row,Bacterial Biotransformation,Compound
1,Compound NOT metabolized,CN1CCC(=C2c3ccccc3CC(=O)c3sccc32)CC1.O=C(O)/C=C/C(=O)O [KETOTIFEN FUMARATE]
2,Compound metabolized,CC[C@H](C)C(=O)O[C@H]1CCC=C2C=C[C@H](C)[C@H](CC[C@@H]3C[C@@H](O)CC(=O)O3)[C@H]21 [MEVASTATIN]

# Conditions: human gut metagenome, 24 h, 2 µM
# Remark: another data set of the same source
row,Bacterial Biotransformation,Compound
1,Compound NOT metabolized,CN1CCC(=C2c3ccccc3CC(=O)c3sccc32)CC1.O=C(O)/C=C/C(=O)O [KETOTIFEN FUMARATE]
2,Compound metabolized,CC[C@H](C)C(=O)O[C@H]1CCC=C2C=C[C@H](C)[C@H](CC[C@@H]3C[C@@H](O)CC(=O)O3)[C@H]21 [MEVASTATIN]

# Conditions: human gut metagenome, 24 h, 2 µM
# Remark: another data set of the same source
row,Bacterial Biotransformation,Compound
1,Compound NOT metabolized,CN1CCC(=C2c3ccccc3CC(=O)c3sccc32)CC1.O=C(O)/C=C/C(=O)O [KETOTIFEN FUMARATE]
2,Compound NOT metabolized,CC[C@H](C)C(=O)O[C@H]1CCC=C2C=C[C@H](C)[C@H](CC[C@@H]3C[C@@H](O)CC(=O)O3)[C@H]21 [MEVASTATIN]

# Conditions: human gut metagenome, 24 h, 2 µM
# Remark: another data set of the same source
row,Bacterial Biotransformation,Compound
1,Compound metabolized,CN1CCC(=C2c3ccccc3CC(=O)c3sccc32)CC1.O=C(O)/C=C/C(=O)O [KETOTIFEN FUMARATE]
2,Compound metabolized,CC[C@H](C)C(=O)O[C@H]1CCC=C2C=C[C@H](C)[C@H](CC[C@@H]3C[C@@H](O)CC(=O)O3)[C@H]21 [MEVASTATIN]

# Conditions: human gut metagenome, 24 h, 2 µM
# Remark: another data set of the same source
row,Bacterial Biotransformation,Compound
1,Compound NOT metabolized,CN1CCC(=C2c3ccccc3CC(=O)c3sccc32)CC1.O=C(O)/C=C/C(=O)O [KETOTIFEN FUMARATE]
2,Compound NOT metabolized,CC[C@H](C)C(=O)O[C@H]1CCC=C2C=C[C@H](C)[C@H](CC[C@@H]3C[C@@H](O)CC(=O)O3)[C@H]21 [MEVASTATIN]

# Conditions: human gut metagenome, 24 h, 2 µM
# Remark: another data set of the same source
row,Bacterial Biotransformation,Compound
1,Compound metabolized,CN1CCC(=C2c3ccccc3CC(=O)c3sccc32)CC1.O=C(O)/C=C/C(=O)O [KETOTIFEN FUMARATE]
2,Compound NOT metabolized,CC[C@H](C)C(=O)O[C@H]1CCC=C2C=C[C@H](C)[C@H](CC[C@@H]3C[C@@H](O)CC(=O)O3)[C@H]21 [MEVASTATIN]

# Conditions: human gut metagenome, 24 h, 2 µM
# Remark: another data set of the same source
row,Bacterial Biotransformation,Compound
1,Compound NOT metabolized,CN1CCC(=C2c3ccccc3CC(=O)c3sccc32)CC1.O=C(O)/C=C/C(=O)O [KETOTIFEN FUMARATE]
2,Compound metabolized,CC[C@H](C)C(=O)O[C@H]1CCC=C2C=C[C@H](C)[C@H](CC[C@@H]3C[C@@H](O)CC(=O)O3)[C@H]21 [MEVASTATIN]

# Conditions: human gut metagenome, 24 h, 2 µM
# Remark: another data set of the same source
row,Bacterial Biotransformation,Compound
1,Compound metabolized,CN1CCC(=C2c3ccccc3CC(=O)c3sccc32)CC1.O=C(O)/C=C/C(=O)O [KETOTIFEN FUMARATE]
2,Compound metabolized,CC[C@H](C)C(=O)O[C@H]1CCC=C2C=C[C@H](C)[C@H](CC[C@@H]3C[C@@H](O)CC(=O)O3)[C@H]21 [MEVASTATIN]

# Assay: as §1, with “WLS-069” for “Z-025”, “human” for “rabbit”, “ERS12561748” for “ERS12561824”
# Conditions: 2 µM
row,Bacterial Biotransformation,Compound
1,Compound NOT metabolized,CN1CCC(=C2c3ccccc3CC(=O)c3sccc32)CC1.O=C(O)/C=C/C(=O)O [KETOTIFEN FUMARATE]
2,Compound metabolized,CC[C@H](C)C(=O)O[C@H]1CCC=C2C=C[C@H](C)[C@H](CC[C@@H]3C[C@@H](O)CC(=O)O3)[C@H]21 [MEVASTATIN]

# Assay: as §1, with “WLS-039” for “Z-025”, “human” for “rabbit”, “ERS12561746” for “ERS12561824”
# Conditions: 2 µM
row,Bacterial Biotransformation,Compound
1,Compound NOT metabolized,CN1CCC(=C2c3ccccc3CC(=O)c3sccc32)CC1.O=C(O)/C=C/C(=O)O [KETOTIFEN FUMARATE]
2,Compound metabolized,CC[C@H](C)C(=O)O[C@H]1CCC=C2C=C[C@H](C)[C@H](CC[C@@H]3C[C@@H](O)CC(=O)O3)[C@H]21 [MEVASTATIN]

# Conditions: human gut metagenome, 24 h, 2 µM
# Remark: another data set of the same source
row,Bacterial Biotransformation,Compound
1,Compound NOT metabolized,CN1CCC(=C2c3ccccc3CC(=O)c3sccc32)CC1.O=C(O)/C=C/C(=O)O [KETOTIFEN FUMARATE]
2,Compound NOT metabolized,CC[C@H](C)C(=O)O[C@H]1CCC=C2C=C[C@H](C)[C@H](CC[C@@H]3C[C@@H](O)CC(=O)O3)[C@H]21 [MEVASTATIN]

# Conditions: human gut metagenome, 24 h, 2 µM
# Remark: another data set of the same source
row,Bacterial Biotransformation,Compound
1,Compound metabolized,CN1CCC(=C2c3ccccc3CC(=O)c3sccc32)CC1.O=C(O)/C=C/C(=O)O [KETOTIFEN FUMARATE]
2,Compound metabolized,CC[C@H](C)C(=O)O[C@H]1CCC=C2C=C[C@H](C)[C@H](CC[C@@H]3C[C@@H](O)CC(=O)O3)[C@H]21 [MEVASTATIN]

# Assay: as §1, with “WLS-038” for “Z-025”, “human” for “rabbit”, “ERS12561745” for “ERS12561824”
# Conditions: 2 µM
row,Bacterial Biotransformation,Compound
1,Compound NOT metabolized,CN1CCC(=C2c3ccccc3CC(=O)c3sccc32)CC1.O=C(O)/C=C/C(=O)O [KETOTIFEN FUMARATE]
2,Compound metabolized,CC[C@H](C)C(=O)O[C@H]1CCC=C2C=C[C@H](C)[C@H](CC[C@@H]3C[C@@H](O)CC(=O)O3)[C@H]21 [MEVASTATIN]

# Assay: as §1, with “Z-017” for “Z-025”, “mouse” for “rabbit”, “ERS12561816” for “ERS12561824”
# Conditions: 2 µM
row,Bacterial Biotransformation,Compound
1,Compound NOT metabolized,CN1CCC(=C2c3ccccc3CC(=O)c3sccc32)CC1.O=C(O)/C=C/C(=O)O [KETOTIFEN FUMARATE]
2,Compound metabolized,CC[C@H](C)C(=O)O[C@H]1CCC=C2C=C[C@H](C)[C@H](CC[C@@H]3C[C@@H](O)CC(=O)O3)[C@H]21 [MEVASTATIN]

# Assay: as §1, with “Z-001” for “Z-025”, “mouse” for “rabbit”, “ERS12561801” for “ERS12561824”
# Conditions: 2 µM
row,Bacterial Biotransformation,Compound
1,Compound NOT metabolized,CN1CCC(=C2c3ccccc3CC(=O)c3sccc32)CC1.O=C(O)/C=C/C(=O)O [KETOTIFEN FUMARATE]
2,Compound NOT metabolized,CC[C@H](C)C(=O)O[C@H]1CCC=C2C=C[C@H](C)[C@H](CC[C@@H]3C[C@@H](O)CC(=O)O3)[C@H]21 [MEVASTATIN]

# Conditions: human gut metagenome, 24 h, 2 µM
# Remark: another data set of the same source
row,Bacterial Biotransformation,Compound
1,Compound NOT metabolized,CN1CCC(=C2c3ccccc3CC(=O)c3sccc32)CC1.O=C(O)/C=C/C(=O)O [KETOTIFEN FUMARATE]
2,Compound metabolized,CC[C@H](C)C(=O)O[C@H]1CCC=C2C=C[C@H](C)[C@H](CC[C@@H]3C[C@@H](O)CC(=O)O3)[C@H]21 [MEVASTATIN]

# Conditions: human gut metagenome, 24 h, 2 µM
# Remark: another data set of the same source
row,Bacterial Biotransformation,Compound
1,Compound NOT metabolized,CN1CCC(=C2c3ccccc3CC(=O)c3sccc32)CC1.O=C(O)/C=C/C(=O)O [KETOTIFEN FUMARATE]
2,Compound metabolized,CC[C@H](C)C(=O)O[C@H]1CCC=C2C=C[C@H](C)[C@H](CC[C@@H]3C[C@@H](O)CC(=O)O3)[C@H]21 [MEVASTATIN]

# Assay: as §1, with “Z-002” for “Z-025”, “ERS12561802” for “ERS12561824”
# Conditions: 2 µM
row,Bacterial Biotransformation,Compound
1,Compound NOT metabolized,CN1CCC(=C2c3ccccc3CC(=O)c3sccc32)CC1.O=C(O)/C=C/C(=O)O [KETOTIFEN FUMARATE]
2,Compound NOT metabolized,CC[C@H](C)C(=O)O[C@H]1CCC=C2C=C[C@H](C)[C@H](CC[C@@H]3C[C@@H](O)CC(=O)O3)[C@H]21 [MEVASTATIN]
